Legend:
Format in all cases: physicochemical
[1] = Cooling condition after dissolution with heating 2: turbidity after storage; conditions: lyophilized composition (Polysorbate 20 0.5%, histidine 0.75%, sucrose 5.6%) stored at 50°C for 1 week, reconstituted
Experimental: First, Polysorbate 20 was dissolved in distilled water in a concentration of 0.5%, histidine in a concentration of 0.75%, and sucrose in a concentration of 5.6%. Next, 800 mg of the active component (KRN7000) was weighed and stirred in 4 liters of the solvent under heating at 73°C for 30 minutes in order to form a solution. After dissolution, the mixture was divided into about 500 ml portions, cooled rapidly - gradually with stirring under the following six rates:
After cooling, the mixtures were filtered through a 0.22 µm filter, and transparent colorless glass vials having a volume of 5 ml were charged with a 1 ml portion of each of a variety of solutions thus obtained and subjected to lyophilization. Lyophilization was carried out under the condition of preliminary freezing at -50°C for 5 hours and drying at -15°C for 48 hours, 10°C for 12 hours, and finally at 25°C for 7 hours to give the lyophilized product. The degree of vacuum was set at 0.1 Torr or less during drying step.
After lyophilization, the lyophilized composition thus obtained was stored at 50°C for 1 week, and the turbidity of the reconstituted solution was measured. In this connection, the turbidity of the lyophilized composition was used which was reconstituted in 1 ml of distilled water for injection and left standing for 30 minutes, and turbidity was measured when the foams generated on reconstitution disappeared.
The turbidity was measured by the following method: various dilutions including 50-fold dilution (kaolin 2 µg/ml, turbidity 2.00), 100-fold dilution (kaolin 1 µg/ml, turbidity 1.00), and 200-fold dilution (kaolin 0.5 µg/ml, turbidity 0.50) were prepared by diluting the turbidity standard (kaolin, […]) with distilled water. A calibration curve was made by measuring the absorbance at a wave length of 660 nm with a control of distilled water and the various dilutions in a spectrophotometer (HITACHI U-3210). Next, the absorbance of the solutions was measured under the same condition as above to calculate the turbidity of the solutions.

[2] = Additives for improving re-solubility during storage, sucrose as excipient; conditions: lyophilized, KRN7000 200 µg/ml, Polysorbate 20 0.5%, Sucrose 9.6%
Experimental: (§1) First, Polysorbate 20 was dissolved in distilled water in a concentration of 0.5%, and sucrose and a variety of additives such concentrations as listed in Table 9. Next, 20 mg of the active component (KRN7000) was weighed and stirred in 100 ml of the solvents in a heated bath to 80°C for 20 minutes in order to form a solution. After cooling with running water, the mixture was filtered through a 0.22 µm filter, and transparent colorless glass vials having a volume of 5 ml were charged with a 1 ml portion of each of a variety of solutions thus obtained and subjected to lyophilization. Lyophilization was carried out under the condition of preliminary freezing at -40°C for 2 hours and drying at -20°C for 24 hours, 10°C for 12 hours, and finally at 25°C for 5 hours to give the lyophilized product. The degree of vacuum was set at 0.1 Torr or less during drying step.
After the lyophilization step, the lyophilized composition thus obtained was stored at 25°C or 50°C, or at both of these temperatures. After storage at 25°C for 1 month or at 50°C for 3 days, the lyophilized composition was reconstituted in 1 ml of distilled water for injection, left standing for 30 minutes, and solubility was judged when the foams generated on reconstitution disappeared. The samples judged in solution were further stored, and judged again of their solubility after storage at 25°C for 4 months or at 50°C for 2 weeks.
(§2) The solubility was judged by cleaning the outside of the vial and placing it beneath the white light source in a darkroom for observation with naked eye at the position of a luminous intensity of about 5,000 lux. When the sample was clear with no precipitates, it was judged that the active component was dissolved.

[3] = Excipient appropriate to lyophilization 2: re-solubility after storage; conditions: lyophilized, KRN7000 200 µg/ml, Polysorbate 20 0.5%, 25°C
Experimental: The lyophilized preparations having mannitol and sucrose added thereto were observed on their variation with the passage of time.
as §1, with “the saccharides were dissolved in” for “sucrose and a variety of additives”, “7.” for “9.”
After the lyophilization step, the lyophilized composition was stored at 25°C. After storage for 1 month, the lyophilized composition was reconstituted in 1 ml of distilled water for injection, left standing for 30 minutes, and solubility was judged when the foams generated on reconstitution disappeared. The samples judged in solution were further stored, and judged again of their solubility after 4 months.
as §2

Turbidity ([1]; cooling ① 73°C → 30°C, 4 minutes (10.75°C/min)): 2.08
Turbidity ([1]; cooling ② 73°C → 30°C, 6 minutes (7.17°C/min)): 2.67
Turbidity ([1]; cooling ③ 73°C → 30°C, 7 minutes (6.14°C/min)): 3.31
Turbidity ([1]; cooling ④ 73°C → 30°C, 10 minutes (4.30°C/min)): 3.80
Turbidity ([1]; cooling ⑤ 73°C → 30°C, 23 minutes (1.87°C/min)): 6.44
Turbidity ([1]; cooling ⑥ 73°C → 30°C, 120 minutes (0.36°C/min)): 18.84
Re-solubility after storage (by naked eye) ([2]; Arginine, 0.1%, 50°C, 3 days): + (+ not dissolved (or deposited))
Re-solubility after storage (by naked eye) ([2]; Glycerol, 1%, 25°C, 1 month): + (+ not dissolved (or deposited))
Re-solubility after storage (by naked eye) ([2]; Glycine, 0.1%, 50°C, 3 days): + (+ not dissolved (or deposited))
Re-solubility after storage (by naked eye) ([2]; Glycine, 1%, 50°C, 3 days): + (+ not dissolved (or deposited))
Re-solubility after storage (by naked eye) ([2]; Histidine, 2%, 50°C, 2 weeks): - (- dissolved)
Re-solubility after storage (by naked eye) ([2]; Histidine, 2%, 50°C, 3 days): - (- dissolved)
Re-solubility after storage (by naked eye) ([2]; Pluronic F68, 0.1%, 25°C, 1 month): - (- dissolved)
Re-solubility after storage (by naked eye) ([2]; Pluronic F68, 0.1%, 25°C, 4 month): + (+ not dissolved (or deposited))
Re-solubility after storage (by naked eye) ([2]; Pluronic F68, 1%, 25°C, 1 month): - (- dissolved)
Re-solubility after storage (by naked eye) ([2]; Pluronic F68, 1%, 25°C, 4 month): + (+ not dissolved (or deposited))
Re-solubility after storage (by naked eye) ([2]; Propylene glycol, 1%, 25°C, 1 month): + (+ not dissolved (or deposited))
Re-solubility after storage (by naked eye) ([2]; Sodium deoxycholate, 0.1%, 25°C, 1 month): - (- dissolved)
Re-solubility after storage (by naked eye) ([2]; Sodium deoxycholate, 0.1%, 25°C, 4 month): + (+ not dissolved (or deposited))
Re-solubility after storage (by naked eye) ([2]; Sodium deoxycholate, 1%, 25°C, 1 month): - (- dissolved)
Re-solubility after storage (by naked eye) ([2]; Sodium deoxycholate, 1%, 25°C, 4 month): - (- dissolved)
Re-solubility after storage (by naked eye) ([2]; Sodium deoxycholate, 1%, 50°C, 2 weeks): - (- dissolved)
Re-solubility after storage (by naked eye) ([2]; Sodium deoxycholate, 1%, 50°C, 3 days): - (- dissolved)
Re-solubility after storage (by naked eye) ([2]; no additive, 25°C, 1 month): - (- dissolved)
Re-solubility after storage (by naked eye) ([2]; no additive, 25°C, 4 month): + (+ not dissolved (or deposited))
Re-solubility after storage (by naked eye) ([2]; no additive, 50°C, 3 days): + (+ not dissolved (or deposited))
Re-solubility after storage (by naked eye) ([3]; Mannitol 10%, 1 month): - (- dissolved)
Re-solubility after storage (by naked eye) ([3]; Mannitol 10%, 4 months): + (+ not dissolved (or deposited))
Re-solubility after storage (by naked eye) ([3]; Sucrose 9.6%, 1 month): - (- dissolved)
Re-solubility after storage (by naked eye) ([3]; Sucrose 9.6%, 4 months): + (+ not dissolved (or deposited))
SMILES: CCCCCCCCCCCCCCCCCCCCCCCCCC(=O)N[C@@H](CO[C@H]1O[C@H](CO)[C@H](O)[C@H](O)[C@H]1O)[C@H](O)[C@H](O)CCCCCCCCCCCCCC [KRN7000, (2S,3S,4R)-1-(α-D-galactopyranosyloxy)-2-hexacosanoylamino-3,4-octadecanediol]
